From article PMC3834177 (Cancer Chemotherapy and Pharmacology, 2013)
Marks after values point to notes of the source that are not given here.

Test: Midazolam PK when administered with midostaurin
Settings: for AUC0–inf, adjusted geometric mean / AUC0–last, adjusted geometric mean / C max, adjusted geometric mean / t max, median: plasma, n = 18
Source text: Both inhibition and induction of midazolam clearance were investigated.
Similarly, blood and urine samples were taken on days 1, 3, 6, 7, 8, and 9 to measure the levels of 4β-hydroxycholesterol in plasma and the 6β-hydroxycortisol/cortisol ratio in urine, markers of CYP3A4 activity.
The PK parameters of midazolam and its metabolites (C max, t max, AUC0–last, AUCinf, and t 1/2) were derived using a noncompartmental method with the aid of WinNonLin 5.2. […] Following log transformation, the primary PK parameters were analyzed using a linear, mixed-effects model using the term of treatment as a fixed factor (reference, test 1, test 2) and subject as a random factor. A point estimate and the corresponding 90 % CI for the difference in test 1 versus reference and the difference in test 2 versus reference were derived from the respective contrasts of the model estimates and anti-logged to obtain the GMR and respective 90 % CI.
The concentration of ketoconazole in plasma was assessed using a validated LC–MS/MS assay with an LLOQ of 50.0 ng/mL (WuXi Pharmatech Co, Ltd, China). The concentration of rifampicin in plasma was measured using a validated LC–MS/MS assay with an LLOQ of 5.0 ng/mL (SGS, Cephac Europe, SAS). Plasma concentrations of midazolam and its metabolite 1′-hydroxymidazolam, which is generated by CYP3A4 and CYP3A5 in humans, were measured using a validated LC–MS/MS assay with an LLOQ of ≈0.100 ng/mL (SGS, Cephac Europe, SAS). The plasma concentration of 4β-hydroxycholesterol was measured using a validated LC–MS/MS assay with an LLOQ of 3.0 ng/mL (SGS, Cephac Europe, SAS). The concentrations of 6β-hydroxycortisol and cortisol in urine were determined using validated LC–MS/MS assays with an LLOQ of 10.0 ng/mL for 6β-hydroxycortisol and 1.0 ng/mL for cortisol. The ratio of 6β-hydroxycortisol to cortisol was subsequently calculated (SGS, Cephac Europe, SAS). See Supplementary Table 2 for detailed bioanalytical methods for all 3 studies.

[1] = day 8 (after repeated doses of midostaurin) vs day 1
[2] = Midazolam + midostaurin (day 3)

OCc1ncc2n1-c1ccc(Cl)cc1C(c1ccccc1F)=NC2 [1′-Hydroxymidazolam]
change in AUCinf (day 3 (co-administration of midostaurin) vs day 1): No change
average decrease in C max (day 3 (co-administration of midostaurin) vs midazolam alone day 1): 1.2 fold
t max, Hodges–Lehmann estimate of median difference (90 % distribution-free CI) (day 3/day 1 comparison): 0.13 (−0.50 to 1.50)^b h
average decrease in AUCinf [1]: 1.3 fold
average decrease in C max [1]: 1.3 fold
t max, Hodges–Lehmann estimate of median difference (90 % distribution-free CI) (day 8/day 1 comparison): 0.01 (−0.23 to 0.26)^c h
AUC0–inf, adjusted geometric mean (Midazolam (day 1), midazolam 4 mg alone): 18.18 ng·h/mL
AUC0–last, adjusted geometric mean (Midazolam (day 1)): 15.91 ng·h/mL
C max, adjusted geometric mean (Midazolam (day 1)): 5.83 ng/mL
t max, median (Midazolam (day 1)): 30 min
AUC0–inf, adjusted geometric mean (Midazolam (day 8), midazolam 4 mg alone after repeated midostaurin): 13.74 ng·h/mL
AUC0–last, adjusted geometric mean (Midazolam (day 8)): 12.57 ng·h/mL
C max, adjusted geometric mean (Midazolam (day 8)): 4.37 ng/mL
t max, median (Midazolam (day 8)): 30 min
AUC0–inf, adjusted geometric mean (Midazolam + midostaurin (day 3), midazolam 4 mg + midostaurin 100 mg): 18.54 ng·h/mL
AUC0–last, adjusted geometric mean [2]: 15.87 ng·h/mL
C max, adjusted geometric mean [2]: 4.76 ng/mL
